Source: ChEMBL document CHEMBL1134009, “The discovery of a potent, intracellular, orally bioavailable, long duration inhibitor of human neutrophil elastase--GW311616A a development candidate” (Bioorg Med Chem Lett, 2001)

Experiments:
Cricetulus griseus [1] = assay: Percent inhibition of intraneutrophil elastase in hamster bronchoalveolar lavage 6 hours after oral administration at a dose of 0.73 mg/kg; assay type: organism-based; set-up: dose 0.73 mg/kg; conditions: Lung
Cricetulus griseus [2] = assay: Percent inhibition of intraneutrophil elastase in hamster bronchoalveolar lavage 6 hours after oral administration at a dose of 2.2 mg/kg; assay type: organism-based; set-up: dose 2.2 mg/kg; conditions: Lung
Neutrophil elastase = target: T1, Neutrophil elastase (Homo sapiens, UniProt P08246); assay: Inhibitory concentration against Elastase
T1 sequence (P08246 whole entry): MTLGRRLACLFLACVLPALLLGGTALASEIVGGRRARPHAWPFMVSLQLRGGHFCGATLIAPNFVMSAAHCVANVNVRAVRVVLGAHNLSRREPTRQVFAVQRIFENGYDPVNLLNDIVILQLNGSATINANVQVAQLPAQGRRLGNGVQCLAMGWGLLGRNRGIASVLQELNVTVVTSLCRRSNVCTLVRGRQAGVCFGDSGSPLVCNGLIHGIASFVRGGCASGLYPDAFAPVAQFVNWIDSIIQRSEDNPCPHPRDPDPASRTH

Homo sapiens = species: Homo sapiens; assay: Residual elastase activity was evaluated after incubation with human whole blood for 30 min; assay type: functional; conditions: 0.5 h
[3] = Plasma clearance was measured in hamster at the dose of 3 mg/kg by intravenous administration; assay type: ADME, organism-based, Cricetulus griseus; set-up: dose 3 mg/kg, route intravenous; conditions: chinese hamster, read-out: Clp
[4] = Half life of compound was determined in hamster blood; assay type: ADME, tissue-based, Cricetulus griseus; conditions: chinese hamster
Cricetulus griseus [5] = assay: Percent inhibition of intraneutrophil elastase in hamster bronchoalveolar lavage 6 hours after oral administration at a dose 2.2 mg/kg; assay type: organism-based; set-up: dose 2.2 mg/kg; conditions: Lung
Cricetulus griseus [6] = assay: Percent inhibition of intraneutrophil elastase in hamster bronchoalveolar lavage at the dose 20 mg/kg 6 hours after oral administration.; assay type: organism-based; set-up: dose 20 mg/kg; conditions: Lung
[7] = Plasma clearance was measured in hamster at the dose of 10 mg/kg by peroral administration; assay type: ADME, organism-based, Cricetulus griseus; set-up: dose 10 mg/kg, route oral; conditions: chinese hamster, po, read-out: Clp
[8] = Bioavailability in hamster was determined; assay type: ADME, organism-based, Cricetulus griseus; conditions: chinese hamster, in vivo
[9] = Half life of compound was determined in human blood; assay type: ADME, tissue-based
[10] = Half life of compound was determined in rat blood; assay type: ADME
[11] = Half life of compound was determined in dog blood; assay type: ADME, Canis lupus familiaris
[12] = Bioavailability in hamster at a dose of 3 mg/kg by […] administration; assay type: ADME, organism-based, Cricetulus griseus; conditions: chinese hamster, in vivo
[13] = Bioavailability in hamster at a dose of 3 mg/kg by oral administration; assay type: ADME, organism-based, Cricetulus griseus; conditions: chinese hamster, in vivo
Cricetulus griseus [14] = assay: Percent inhibition of intraneutrophil elastase in hamster bronchoalveolar lavage 6 hours after oral administration at a dose of 20 mg/kg; assay type: organism-based; set-up: dose 20 mg/kg; conditions: Lung

IC50 (Neutrophil elastase) [nM]	IC50 (Homo sapiens) [nM]	clearance [3] [mL/min/kg]	half-life [4] [h]	CL/F [7] [mL/min/kg]	bioavailability [8] [%]	half-life [9] [h]	half-life [10] [h]	half-life [11] [h]	bioavailability [12] [%]	bioavailability [13] [%]	Compound	inhibition (Cricetulus griseus [1]) [%]	inhibition (Cricetulus griseus [2]) [%]	inhibition (Cricetulus griseus [5]) [%]	inhibition (Cricetulus griseus [6]) [%]	inhibition (Cricetulus griseus [14]) [%]
26	1800										CC(C)[C@H]1C(=O)N(S(C)(=O)=O)[C@H]2CN(C(=O)/C=C/CN3CCCCC3)CC12 (stereo not given in full)	33	77			
242		60	> 6	60	70	> 6	3.5	> 6			CC(C)[C@H]1C(=O)N(S(C)(=O)=O)[C@H]2CN(C(=O)CCN3CCCCC3)C[C@H]12.Cl			20	88	
120		140	1.4	140		3.7	0.3	3.5	49	49	CCC[C@H]1C(=O)N(S(C)(=O)=O)[C@H]2CN(C(=O)CCN3CCCCC3)C[C@H]12.Cl		4			75
